The text below walks through data of US9018233B2, “Diaminoaryl derivatives substituted by carbamate and pesticidal composition containing same” (Kyung Nong Corporation, priority 2012, dated 2015).

For the first assay, the system named is Tobacco Cutworm Moth (Spodoptera litura). The experiment in a line: Insecticidal activities against tobacco cutworm moth measured by leaf-dip method. The assay is classed as in vivo. The conditions noted are these: 96 h, 100 ppm, after 4 days, 2nd instar larvae, leaf-dip, read-out: percent control value. As for the experimental part: In this test, larvae descended from tobacco cutworm moths (Spodoptera litura), which had been collected in 2009 near Gyeongju area and reared in the laboratory, were used. […] […] The Petri dish was stored under light condition 16:8 hours, 25±1° C. and RH 50-60%, and then the number of larvae survived were counted 24, 48, 72 and 96 hours after the inoculation. As shown in Equations 1 and 2 above, the survival rate was calculated by calibrating the larvae density after treatment with the larvae density before treatment, and the control value is calculated by subtracting the survival rate in the treatment group from the survival rate in the control group and dividing the result by the survival rate in the control group.
For `CC(C)COC(=O)Nc1cc(Cl)cc(Cl)c1NC(=O)c1cc(Br)nn1-c1ncccc1Cl` [Example 4, isobutyl (2-(3-bromo-1-(3-chloropyridin-2-yl)-1H-pyrazole-5-carboxamido)-3,5-dichlorophenyl)carbamate], the pest or weed control at 100 ppm was no less than 80%.
On the same count and under the same terms, to `COC(=O)Nc1cc(Cl)cc(C)c1NC(=O)c1cc(Br)nn1-c1ncccc1Cl` [Example 11, methyl (2-(3-bromo-1-(3-chloropyridin-2-yl)-1H-pyrazole-5-carboxamido)-5-chloro-3-methylphenyl)carbamate] belongs no less than 80%.
On the same count and under the same terms, in the case of `CCOC(=O)Nc1cc(Cl)cc(C)c1NC(=O)c1cc(Br)nn1-c1ncccc1Cl` [Example 21, ethyl (2-(3-bromo-1-(3-chloropyridin-2-yl)-1H-pyrazole-5-carboxamido)-5-chloro-3-methylphenyl)carbamate] it was no less than 80%; in that of `CCCOC(=O)Nc1cc(Cl)cc(C)c1NC(=O)c1cc(Br)nn1-c1ncccc1Cl` [Example 22, propyl (2-(3-bromo-1-(3-chloropyridin-2-yl)-1H-pyrazole-5-carboxamido)-5-chloro-3-methylphenyl)carbamate], no less than 80%; in that of `COC(=O)Nc1cc(C#N)cc(C)c1NC(=O)c1cc(Br)nn1-c1ncccc1Cl` [Example 33, methyl (2-(3-bromo-1-(3-chloropyridin-2-yl)-1H-pyrazole-5-carboxamido)-5-cyano-3-methylphenyl)carbamate], no less than 80%.
Still for that read-out and setting: in the case of `COC(=O)Nc1cc(Br)cc(Br)c1NC(=O)c1cc(Br)nn1-c1ncccc1Cl` [Example 40, methyl (3,5-dibromo-2-(3-bromo-1-(3-chloropyridin-2-yl)-1H-pyrazole-5-carboxamido)phenyl)carbamate] it was no less than 80%; in that of `CC(C)COC(=O)Nc1cc(Br)cc(Br)c1NC(=O)c1cc(Br)nn1-c1ncccc1Cl` [Example 41, isobutyl (3,5-dibromo-2-(3-bromo-1-(3-chloropyridin-2-yl)-1H-pyrazole-5-carboxamido)phenyl)carbamate], no less than 80%; in that of `COC(=O)Nc1cc(C(F)(F)F)cc(Cl)c1NC(=O)c1cc(Br)nn1-c1ncccc1Cl` [Example 48, methyl (2-(3-bromo-1-(3-chloropyridin-2-yl)-1H-pyrazole-5-carboxamido)-3-chloro-5-(trifluoromethyl)phenyl)carbamate], no less than 80%.
For the molecule `COC(=O)Nc1cc(C(F)(F)F)cc(Br)c1NC(=O)c1cc(Br)nn1-c1ncccc1Cl` [Example 51, methyl (3-bromo-2-(3-bromo-1-(3-chloropyridin-2-yl)-1H-pyrazole-5-carboxamido)-5-(trifluoromethyl)phenyl)carbamate], the pest or weed control at 100 ppm was no less than 80%.
On the same count and under the same terms, to `COC(=O)Nc1cc([N+](=O)[O-])cc(C)c1NC(=O)c1cc(Br)nn1-c1ncccc1Cl` [Example 55, Methyl (2-(3-bromo-1-(3-chloropyridin-2-yl)-1H-pyrazole-5-carboxamido)-3-methyl-5-nitrophenyl)carbamate] belongs no less than 80%; to `COC(=O)Nc1cc(C#N)cc(C)c1NC(=O)c1cc(Cl)nn1-c1ncccc1Cl` [Example 56, methyl (2-(3-chloro-1-(3-chloropyridin-2-yl)-1H-pyrazole-5-carboxamido)-5-cyano-3-methylphenyl)carbamate], no less than 80%; to `COC(=O)Nc1cc(C#N)cc(C)c1NC(=O)c1cc(C#N)nn1-c1ncccc1Cl` [Example 57, methyl (2-(1-(3-chloropyridin-2-yl)-3-cyano-1H-pyrazole-5-carboxamido)-5-cyano-3-methylphenyl)carbamate], no less than 80%.
Same read-out and setting: to `COC(=O)Nc1cc(C#N)cc(C)c1NC(=O)c1cc(OC)nn1-c1ncccc1Cl` [Example 58, methyl (2-(1-(3-chloropyridin-2-yl)-3-methoxy-1H-pyrazole-5-carboxamido)-5-cyano-3-methylphenyl)carbamate] belongs no less than 80%; to `COC(=O)Nc1cc(C#N)cc(C)c1NC(=O)c1cc(OCC(F)(F)F)nn1-c1ncccc1Cl` [Example 60, methyl (2-(3-(2,2,2-trifluoroethoxy)-1-(3-chloropyridin-2-yl)-1H-pyrazole-5-carboxamido)-5-cyano-3-methylphenyl)carbamate], no less than 80%.
For the molecule `COC(=O)Nc1cc(C#N)cc(C)c1NC(=O)c1cc(C(F)(F)F)nn1-c1ncccc1Cl` [Example 61, methyl (2-(1-(3-chloropyridin-2-yl)-3-(trifluoromethyl)-1H-pyrazole-5-carboxamido)-5-cyano-3-methylphenyl)carbamate], the pest or weed control at 100 ppm is no less than 80%.
The same measure, in the same setting: to `COC(=O)Nc1cc(C#N)cc(C)c1NC(=O)c1cc(C(F)(F)F)nn1-c1ccccc1Cl` [Example 62, methyl (2-(1-(2-chlorophenyl)-3-(trifluoromethyl)-1H-pyrazole-5-carboxamido)-5-cyano-3-methylphenyl)carbamate] belongs no less than 80%.
In the case of `CCOC(=O)Nc1cc(C#N)cc(C)c1NC(=O)c1cc(Br)nn1-c1ncccc1Cl` [Example 63, ethyl (2-(3-bromo-1-(3-chloropyridin-2-yl)-1H-pyrazole-5-carboxamido)-5-cyano-3-methylphenyl)carbamate], the pest or weed control at 100 ppm is no less than 80%.
Turning to `Cc1cc(C#N)cc(NC(=O)OCCCl)c1NC(=O)c1cc(Br)nn1-c1ncccc1Cl` [Example 64, 2-chloroethyl (2-(3-bromo-1-(3-chloropyridin-2-yl)-1H-pyrazole-5-carboxamido)-5-cyano-3-methylphenyl)carbamate], the pest or weed control at 100 ppm is no less than 80%.

Staying with this assay, now noted: 96 h, read-out: percent control value.
In the case of `COC(=O)Nc1cccc(C)c1NC(=O)c1cc(Br)nn1-c1ncccc1Cl` [Example 54, Methyl (2-(3-bromo-1-(3-chloropyridin-2-yl)-1H-pyrazole-5-carboxamido)-3-methylphenyl)carbamate], the pest or weed control at 100 ppm was no less than 80%.
